Test results as given in paper PMC10060569 (Frontiers in Pharmacology, 2023).

Molecular target: T1, N190A/S15V-hP2X3R (Homo sapiens, UniProt P56373, N190A/S15V)
T1 construct: expressed in transfected cells; host or cells: Xenopus laevis oocytes (cRNA injection)
T1 sequence (P56373 1-397 S15V/N190A): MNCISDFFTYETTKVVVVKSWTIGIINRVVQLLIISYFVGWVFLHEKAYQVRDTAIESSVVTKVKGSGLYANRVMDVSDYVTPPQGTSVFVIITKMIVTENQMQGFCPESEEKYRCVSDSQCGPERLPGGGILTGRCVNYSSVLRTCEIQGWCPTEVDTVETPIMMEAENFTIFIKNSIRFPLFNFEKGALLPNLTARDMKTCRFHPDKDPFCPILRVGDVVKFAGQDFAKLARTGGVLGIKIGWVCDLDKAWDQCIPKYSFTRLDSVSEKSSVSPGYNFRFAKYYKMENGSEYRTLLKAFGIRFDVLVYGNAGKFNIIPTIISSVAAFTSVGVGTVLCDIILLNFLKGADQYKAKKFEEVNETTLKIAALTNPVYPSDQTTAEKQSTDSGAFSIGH
Test: TEVC of ATP-induced currents, N190A/S15V-hP2X3R mutant in X. laevis oocytes
Type: cell-based
Conditions: read-out: % inhibition of 10 µM ATP-induced currents by 10 µM diclofenac
Description: Ion currents mediated by P2X receptors were evoked by the indicated concentration of ATP or α,β-meATP and were recorded 1 or 2 days after cRNA injection at ambient temperature at a holding potential of −60 mV by two-electrode voltage clamp (TEVC) as previously described ([Hausmann et al., 2006]). Calcium-free ORi^− solution (90 mM NaCl, 1 mM KCl, 2 mM MgCl2, 10 mM HEPES, pH 7.4) was used to avoid bias due to calcium-activated chloride channels (CaCC) endogenously expressed in X. laevis oocytes ([Miledi, 1982]; [Methfessel et al., 1986]). […]
In the case of fast-desensitizing P2XR subtypes (P2X1R and P2X3R), ATP is applied five times in repetition, and the ATP-induced current amplitude in the presence (after pre-incubation) of the antagonist (fourth application) is compared to the arithmetic mean of flanking control ATP-induced current amplitudes in the absence of the antagonist (third and fifth ATP application). […] The correction factor was calculated as the ratio of the fourth ATP-induced current amplitude to the third amplitude (Eq. 3) when the experiment was performed in the absence of the antagonist. […] Since the magnitude of the run-down varies from day to day and batch to batch of oocytes, the correction factor was determined on each day of the experiments and was calculated as the arithmetic mean of several recordings (at least 3–5 and on average 5) on each day. […]

Compound: O=C(O)Cc1ccccc1Nc1c(Cl)cccc1Cl [Diclofenac, diclofenac]
- inhibition at 10 µM: 8.1%
